According to ChEMBL document CHEMBL5154741, “Antibacterial alkylguanidino ureas: Molecular simplification approach, searching for membrane-based MoA” (Eur J Med Chem, 2022):
Values after ≈ are worked out from the molar mass of the structure shown. Active and inactive are the calls of the source. The calls are words filed in the database; no cut-off is given here.

How the values were obtained:
[1] = Hemolytic activity against human RBC at 32 ug/ml incubated for 30 mins (reference value: 0%); assay type: toxicity, cell-based, Erythrocyte; conditions: human red blood cells (erythrocytes), at 32 µg/mL, read-out: Activity
[2] = test system: Cell membrane; assay: Disruption of membrane integrity in Escherichia coli MG1655 assessed as increase in PI uptake at 16 ug/ml measured after 1 hr by SYTO9/PI staining based fluorometric analysis; assay type: subcellular; conditions: dose 16.0 µg/ml
[3] = test system: Enterobacter cloacae; assay: Antibacterial activity against Enterobacter cloacae VA-417/02 assessed as bacterial growth inhibition incubated for 18 hrs by CLSI based micro-dilution broth method; assay type: functional
[4] = test system: Cell membrane; assay: Disruption of membrane integrity in Acinetobacter baumannii ATCC 17978 assessed as increase in PI uptake at 16 ug/ml measured after 15 mins by SYTO9/PI staining based fluorometric analysis; conditions: dose 16.0 µg/ml
[5] = test system: Cell membrane; assay: Disruption of membrane integrity in Bacillus subtilis ATCC 6633 assessed as increase in PI uptake at 16 ug/ml measured after 15 mins by SYTO9/PI staining based fluorometric analysis; conditions: dose 16.0 µg/ml
[6] = test system: Cell membrane; assay: Disruption of membrane integrity in Pseudomonas aeruginosa ATCC 27853 assessed as increase in PI uptake at 16 ug/ml measured after 1 hr by SYTO9/PI staining based fluorometric analysis; assay type: subcellular; conditions: dose 16.0 µg/ml
[7] = test system: Streptococcus pyogenes; assay: Antibacterial activity against Streptococcus pyogenes ATCC 12344 assessed as bacterial growth inhibition incubated for 18 hrs by micro-dilution broth method; assay type: functional
[8] = Hemolytic activity against human RBC at 8 ug/ml incubated for 30 mins (reference value: 0%); assay type: toxicity, cell-based, Erythrocyte; conditions: human red blood cells (erythrocytes), at 8 µg/mL, read-out: Activity
[9] = Hemolytic activity against human RBC at 4 ug/ml incubated for 30 mins (reference value: 0%); assay type: toxicity, cell-based, Erythrocyte; conditions: human red blood cells (erythrocytes), at 4 µg/mL, read-out: Activity
[10] = Apparent permeability of the compound across bacterial inner membrane mimic POPE/POPG (6:4) in PBS buffer at pH 7.4 incubated for 5 hrs by PAMPA based UV-Vis spectrophotometric analysis; assay type: ADME
[11] = Hemolytic activity against human RBC at 2 ug/ml incubated for 30 mins (reference value: 0%); assay type: toxicity, cell-based, Erythrocyte; conditions: human red blood cells (erythrocytes), at 2 µg/mL, read-out: Activity
[12] = Apparent permeability of the compound across bacterial inner membrane mimic PC-phospholipids in PBS buffer assessed as membrane retention at pH 7.4 incubated for 5 hrs by PAMPA based UV-Vis spectrophotometric analysis; assay type: ADME, cell membranes; conditions: pH 7.4, 5 h
[13] = test system: Lipid bilayer; assay: Binding affinity to bacterial membrane mimic POPG large unilamellar vesicle assessed as bathochromic shift at 125 uM measured at t = 0 by UV-Vis spectrophotometric analysis
[14] = test system: Lipid bilayer; assay: Binding affinity to bacterial membrane mimic POPG large unilamellar vesicle assessed as hyperchromic shift at 125 uM measured after 1 hr by UV-Vis spectrophotometric analysis
[15] = test system: Bacillus subtilis; assay: Antibacterial activity against Bacillus subtilis ATCC 6633 assessed as bacterial growth inhibition incubated for 18 hrs by CLSI based micro-dilution broth method; assay type: functional
[16] = test system: Cell membrane; assay: Disruption of membrane integrity in Escherichia coli MG1655 assessed as increase in PI positive cells at 16 ug/ml measured after 1 hr by SYTO9/PI staining based confocal laser scanning microscope analysis; assay type: subcellular; conditions: dose 16.0 µg/ml
[17] = test system: Cell membrane; assay: Disruption of membrane integrity in Staphylococcus aureus ATCC 25923 assessed as increase in PI positive cells at 16 ug/ml measured after 1 hr by SYTO9/PI staining based confocal laser scanning microscope analysis; assay type: subcellular; conditions: dose 16.0 µg/ml
[18] = test system: Cell membrane; assay: Disruption of membrane integrity in Enterococcus faecalis ATCC 19433 assessed as increase in PI positive cells at 16 ug/ml measured after 1 hr by SYTO9/PI staining based confocal laser scanning microscope analysis; assay type: subcellular; conditions: dose 16.0 µg/ml
[19] = test system: Cell membrane; assay: Disruption of membrane integrity in Escherichia coli MG1655 assessed as increase in PI uptake at 16 ug/ml measured every 15 mins for 6 hrs by SYTO9/PI staining based fluorometric analysis; conditions: dose 16.0 µg/ml
[20] = test system: Cell membrane; assay: Disruption of membrane integrity in Bacillus subtilis ATCC 6633 assessed as increase in PI positive cells at 16 ug/ml measured after 1 hr by SYTO9/PI staining based confocal laser scanning microscope analysis; assay type: subcellular; conditions: dose 16.0 µg/ml
[21] = test system: Acinetobacter baumannii; assay: Antibacterial activity against Acinetobacter baumannii ATCC 17978 assessed as bacterial growth inhibition incubated for 18 hrs by micro-dilution broth method; assay type: functional
[22] = test system: Cell membrane; assay: Disruption of membrane integrity in Pseudomonas aeruginosa ATCC 27853 assessed as increase in PI positive cells at 16 ug/ml measured after 1 hr by SYTO9/PI staining based confocal laser scanning microscope analysis; assay type: subcellular; conditions: dose 16.0 µg/ml
[23] = Apparent permeability of the compound across bacterial inner membrane mimic POPE/POPG (6:4) in PBS buffer assessed as membrane retention at pH 7.4 incubated for 5 hrs by PAMPA based UV-Vis spectrophotometric analysis; assay type: ADME, cell membranes; conditions: pH 7.4, 5 h
[24] = Apparent permeability of the compound across bacterial inner membrane mimic PC-phospholipids in PBS buffer at pH 7.4 incubated for 5 hrs by PAMPA based UV-Vis spectrophotometric analysis; assay type: ADME
[25] = test system: Staphylococcus aureus; assay: Antibacterial activity against Staphylococcus aureus ATCC 25923 assessed as bacterial growth inhibition incubated for 18 hrs by micro-dilution broth method; assay type: functional
[26] = test system: Cell membrane; assay: Disruption of membrane integrity in Acinetobacter baumannii ATCC 17978 assessed as increase in PI uptake at 16 ug/ml measured after 1 hr by SYTO9/PI staining based fluorometric analysis; assay type: subcellular; conditions: dose 16.0 µg/ml
[27] = Hemolytic activity against human RBC at 16 ug/ml incubated for 30 mins relative to control; assay type: toxicity, cell-based, Erythrocyte; conditions: human red blood cells (erythrocytes), at 16 µg/mL, read-out: Activity
[28] = test system: Cell membrane; assay: Disruption of membrane integrity in Pseudomonas aeruginosa ATCC 27853 assessed as increase in PI uptake at 16 ug/ml measured every 15 mins for 6 hrs by SYTO9/PI staining based fluorometric analysis; conditions: dose 16.0 µg/ml
[29] = test system: Cell membrane; assay: Disruption of membrane integrity in Staphylococcus aureus ATCC 25923 assessed as increase in PI uptake at 16 ug/ml measured every 15 mins for 6 hrs by SYTO9/PI staining based fluorometric analysis; assay type: subcellular; conditions: dose 16.0 µg/ml
[30] = test system: Cell membrane; assay: Disruption of membrane integrity in Enterococcus faecalis ATCC 19433 assessed as increase in PI uptake at 16 ug/ml measured after 1 hr by SYTO9/PI staining based fluorometric analysis; assay type: subcellular; conditions: dose 16.0 µg/ml
[31] = test system: Pseudomonas aeruginosa; assay: Antibacterial activity against Pseudomonas aeruginosa ATCC 27853 assessed as bacterial growth inhibition incubated for 18 hrs by micro-dilution broth method; assay type: functional
[32] = test system: Cell membrane; assay: Disruption of membrane integrity in Acinetobacter baumannii ATCC 17978 assessed as increase in PI positive cells at 16 ug/ml measured after 1 hr by SYTO9/PI staining based confocal laser scanning microscope analysis; conditions: dose 16.0 µg/ml
[33] = test system: Escherichia coli; assay: Antibacterial activity against Escherichia coli CCUG assessed as bacterial growth inhibition incubated for 18 hrs by micro-dilution broth method; assay type: functional
[34] = Hemolytic activity against human RBC at 64 ug/ml incubated for 30 mins (reference value: 0%); assay type: toxicity, cell-based, Erythrocyte; conditions: human red blood cells (erythrocytes), at 64 µg/mL, read-out: Activity

| SMILES | hemolysis at 0.5 h, 32 ug/ml [1] [%] | Activity [2] | MBC [3] [µg/mL] | MIC [3] [µg/mL] | Activity [4] | Activity [5] | Activity [6] | MIC [7] [µg/mL] | hemolysis at 0.5 h, 8 ug/ml [8] [%] | hemolysis at 0.5 h, 4 ug/ml [9] [%] | Papp at 5 h [10] [×10⁻⁶ cm/s] | hemolysis at 0.5 h, 2 ug/ml [11] [%] | R% [12] [%] | Activity [13] | Activity [14] | MIC [15] [µg/mL] | Activity [16] | Activity [17] | Activity [18] | Activity [19] | further results |
| --- | --- | --- | --- | --- | --- | --- | --- | --- | --- | --- | --- | --- | --- | --- | --- | --- | --- | --- | --- | --- | --- |
| CCCCCCCCN(CCCCCCCCNC(=N)NCC1CC1)C(=O)N(CCCCCCNC(=N)NCC1CC1)CCCCCCNC(=N)NCC1CC1 | 8.4 | Active | 8 (≈ 10.2 µM) | 8 (≈ 10.2 µM) | Active | Active | Active | 1 (≈ 1.27 µM) | 1.2 | 0.5 | 0.13 | 0 | 0 | Active | Active | 0.5 (≈ 0.636 µM) | Active | Active | Active | Active | Activity [20]: Active; MIC [21]: 16 µg/mL (≈ 20.3 µM); Activity [22]: Active; R% [23]: 65.2%; Papp at 5 h [24]: 4.79 ×10⁻⁶ cm/s; MIC [25]: 2 µg/mL (≈ 2.54 µM); Activity [26]: Active; hemolysis at 0.5 h, 16 ug/ml [27]: 2.4%; Activity [28]: Active; Activity [29]: Active; Activity [30]: Active; MIC [31]: 16 µg/mL (≈ 20.3 µM); Activity [32]: Active; MIC [33]: 4 µg/mL (≈ 5.09 µM); hemolysis at 0.5 h, 64 ug/ml [34]: 46.4% |
| N=C(N)NCCCCCCCCN(CCCCCCCCNC(=N)NCC1CC1)C(=O)N(CCCCCCCCNC(=N)NCC1CC1)CCCCCCCCNC(=N)NCC1CC1.O=C(O)C(F)(F)F | 3.3 | Active | 2 | 2 | Active | Active | Active | 0.25 | 0 | 0 | 0.3 | 0 | 0 | Active | Active | 0.5 | Active | Active | Active | Active | Activity [20]: Active; MIC [21]: 4 µg/mL; Activity [22]: Active; R% [23]: 40.8%; Papp at 5 h [24]: 1.85 ×10⁻⁶ cm/s; MIC [25]: 0.5 µg/mL; Activity [26]: Active; hemolysis at 0.5 h, 16 ug/ml [27]: 1.1%; Activity [28]: Active; Activity [29]: Active; Activity [30]: Active; MIC [31]: 8 µg/mL; Activity [32]: Active; MIC [33]: 0.5 µg/mL; hemolysis at 0.5 h, 64 ug/ml [34]: 8.1% |
| N=C(NCCCCCCCCNC(N)=O)NCC1CC1.O=C(O)C(F)(F)F | 0 | Active | 8 | 4 | Active | Active | Active | 0.5 | 0 | 0 | 3.48 | 0 | 7.7 | Active | Active | 1 | Active | Active | Active | Active | Activity [20]: Active; MIC [21]: 16 µg/mL; Activity [22]: Active; R% [23]: 3.2%; Papp at 5 h [24]: 3.17 ×10⁻⁶ cm/s; MIC [25]: 1 µg/mL; Activity [26]: Active; hemolysis at 0.5 h, 16 ug/ml [27]: 0%; Activity [28]: Active; Activity [29]: Active; Activity [30]: Active; MIC [31]: 16 µg/mL; Activity [32]: Active; MIC [33]: 2 µg/mL; hemolysis at 0.5 h, 64 ug/ml [34]: 0% |
